Tested on: pseudovirus containing S protein mutations D614G, E484K, United Kingdom, South African, Brazilian
Assay type: cell-based, SARS-CoV-2

## rhCHI3L1: recombinant human CHI3L1 from a commercial source (R&D Inc.) or generated at Brown University
  cellular integration of Spike proteins of SARS-Cov2 (% of GFP positive cells, FACS): stimulated

— patent US20230183323A1 (BROWN UNIVERSITY, priority 2020, published 2023)
